The data set in a line: Stability of the product at 40° C. / 75% RH (ferric citrate assay and ferric assay by titration). Conditions: Temperature 40° C. ± 2° C., Humidity 75% ± 5% RH. The format is physicochemical. As for the experimental part: 1.1.3. Stability of the Product
0.5 g of ferric citrate, accurately weighed, in 100 mL of water and 5 mL of hydrochloric acid were added in a flask on a water bath until dissolved. 3 g of potassium iodide and 5 mL of hydrochloric acid were added to the flask to form a mixture, and a stopper was inserted in the flask. The mixture was allowed to stand for 15 minutes, and the librated iodine was titrated with 0.1 N sodium thiosulfate solution using a starch test solution as an indicator. A blank test was performed with the same quantities of reagents and in the same manner, and corrections were made if necessary. Each milliliter of 0.1 N sodium thiosulfate is equivalent to 24.496 mg of FeC6H5O7 and each milliliter of 0.1 N sodium thiosulfate is equivalent to 5.585 mg of Iron(III).

ferric citrate [FeC6H5O7 product]: the Ferric assay was determined as 17.68% (1st month); 17.66% (2nd month); 17.70% (3rd month); 17.81% (6th month); 17.69% (Initial). Further, the Ferric citrate assay is recorded as 99.65% (1st month); 99.58% (2nd month); 99.79% (3rd month); 100.37% (6th month); 99.70% (Initial).

The record behind these values is patent US6903235B2, “Pharmaceutical-grade ferric citrate” (Panion & BF Biotech Inc., priority 2003, dated 2005).
